Experimental data reported in PMC2613973 (Insect biochemistry and molecular biology, 2008).

Experiments:
Test in all cases: Isothermal titration calorimetry
Format in all cases: binding
TSGP2 = molecular target: T1, TSGP2 (Ornithodoros kalahariensis, UniProt Q8I9U1)
T1 sequence (Q8I9U1 20-163): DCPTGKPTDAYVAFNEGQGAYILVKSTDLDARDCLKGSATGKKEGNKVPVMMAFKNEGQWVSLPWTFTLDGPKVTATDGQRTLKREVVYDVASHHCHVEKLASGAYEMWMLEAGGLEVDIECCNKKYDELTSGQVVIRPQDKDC

TSGP3 = molecular target: T2, TSGP3 (Ornithodoros kalahariensis, UniProt Q8I9U0)
T2 sequence (Q8I9U0 20-163): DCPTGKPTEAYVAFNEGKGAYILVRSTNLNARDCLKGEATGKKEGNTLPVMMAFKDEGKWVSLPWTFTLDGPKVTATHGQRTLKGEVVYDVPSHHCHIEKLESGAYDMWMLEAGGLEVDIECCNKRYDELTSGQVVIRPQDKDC

Moubatin = Moubatin (Ornithodoros moubata, UniProt Q04669)
Moubatin-like 3 = molecular target: T3, Moubatin-like 3 (Ornithodoros parkeri, UniProt A6N9T1)
T3 sequence (A6N9T1 20-176): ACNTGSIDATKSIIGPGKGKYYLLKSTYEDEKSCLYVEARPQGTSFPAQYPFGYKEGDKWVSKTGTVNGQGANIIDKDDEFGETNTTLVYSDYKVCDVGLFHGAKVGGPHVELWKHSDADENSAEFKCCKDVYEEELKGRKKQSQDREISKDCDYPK

TSGP2_R85G = TSGP2_R85G (Ornithodoros kalahariensis, UniProt Q8I9U1, R104G)
T2_ML = T2_ML (Ornithodoros kalahariensis, UniProt Q8I9U1, A132G/E131N/E136D/G133S/G134A/L130S/L135D/M127Q/M129Q/V137K)
T2_H95D = T2_H95D (Ornithodoros kalahariensis, UniProt Q8I9U1, H114D)
TSGP3_G85R = TSGP3_G85R (Ornithodoros kalahariensis, UniProt Q8I9U0, G104R)
T2_M4 = T2_M4 (Ornithodoros kalahariensis, UniProt Q8I9U1, K92N/T101K/T85M/T94V)

SMILES | Kd (TSGP2) [nM] | Kd (TSGP3) [nM] | Kd (Moubatin) [nM] | Kd (Moubatin-like 3) [nM] | Kd (TSGP2_R85G) [nM] | also measured
CCCCC/C=C\C/C=C\C/C=C\C/C=C\CCCC(=O)O [Arachidonic acid, arachidonic acid (AA)] | 69 ± 7 | 59 ± 24 | 34 ± 6 | – | – | –
NCCc1c[nH]cn1 [Histamine, histamine] | – | – | – | 106 ± 3 | – | –
CCCCC/C=C\C[C@@H](O)/C=C/C=C/C=C\[C@@H](O)CCCC(=O)O [LTB4, leukotriene B4] | 18 ± 3 | 21 ± 5 | 16 ± 3 | – | 10 ± 1.6 | Kd (T2_ML): 12 ± 2 nM; Kd (T2_H95D): 12 ± 2 nM; Kd (TSGP3_G85R): 228 ± 36 nM; Kd (T2_M4): 6 ± 0.8 nM
NCCc1c[nH]c2ccc(O)cc12 [Serotonin, serotonin (5-hydroxytryptamine, 5-HT)] | – | – | – | 116 ± 13 | – | –
CCCCC[C@H](O)/C=C/[C@@H]1[C@@H](C/C=C\CCCC(=O)O)[C@H]2CO[C@@H]1C2 [U46619, 9,11-dideoxy-9α,11α-methanoepoxy prostaglandin F2α (stable thromboxane A2 analog)] | – | 9 ± 1 | 20 ± 3 | – | 7 ± 1 | –
CCCCC[C@H](O)/C=C/C1CC2CC(C2)C1C/C=C\CCCC(=O)O (stereo partly drawn) [cTXA2, carbocyclic thromboxane A2] | – | 5 ± 0.7 | 24 ± 4 | – | – | –
